Measured values as given in patent publication US8207135B2, “Compositions for and methods of enhancing the immune response to antigens” (Wittycell, priority 2007, dated 2012).

Key:
[1] = system: CD8+ T cells responsive to OVA; experiment: SIINFEKL pentamer assay of OVA-specific CD8+ T cells (FACS); format: in vivo, mouse; conditions: IM, days 0 and 14, blood day 21
Procedure: To verify the results obtained using the in vivo cytotoxicity assay described in the Examples above, similar experiments were performed and CD8+ T cell activation was determined by measuring the percentage of OVA-specific CD8+ T cells using a pentamer assay. Briefly, mice were injected intramuscularly with the indicated amounts of OVA and test adjuvant compound at either 1 μg or 100 ng per mouse, respectively on day 0 as follows:
Experiment A: • Group 1: 100 μl of PBS; • Group 2: 50 μg of Ova into 100 μl PBS; • Group 3: 50 μg of Ova with 1 μg αGalCer; • Group 4: 50 μg of Ova with 1 μg PBS-11 • Group 5: 50 μg of Ova with 1 μg PBS-14 • Group 6: 50 μg of Ova with 1 μg PBS-57 • Group 7: 50 μg of Ova with 1 μg PBS-96
Experiment B: • Group 1: 100 μl of PBS; • Group 2: 50 μg of Ova into 100 μl PBS; • Group 3: 50 μg of Ova with 100 ng αGalCer; • Group 4: 50 μg of Ova with 100 ng PBS-11 • Group 5: 50 μg of Ova with 100 ng PBS-14 • Group 6: 50 μg of Ova with 100 ng PBS-57 • Group 7: 50 μg of Ova with 100 ng PBS-96 A second injection was administered to the mice on day 14 and blood was collected from the mice on day 21. The lymphocytes were collected and analyzed by FACS analysis using H-2 K^b SIINFEKL pentamer and CD8 antibody to detect CD8+ T cells responsive to OVA.

OVA-specific IgG1 = OVA-specific IgG1 ELISA after intramuscular immunization; format: in vivo, mouse; conditions: FIG. 11; IM, 50 μg OVA with 100 ng adjuvant, 14 days post-injection
Procedure: (§1) Mice (6 per group) were injected intramuscularly with 50 μg of OVA either alone or in combination with 100 ng of the indicated adjuvants (Freund's adjuvant was used as a positive control) as follows: • Group 1: […] of Ova with CFA/IFA (Positive control) • Group 2: 50 μg of Ova • Group 3: 50 μg of Ova and 100 ng of αGalCer • Group 4: 50 μg of Ova and 100 ng of PBS-11 • Group 5: 50 μg of Ova and 100 ng of PBS-14 • Group 6: 50 μg of Ova and 100 ng of PBS-57 • Group 7: 50 μg of Ova and 100 ng of PBS-96 At 14 days post-injection, blood samples were collected and ELISAs for IgG1 and IgG2a were performed using mouse monoclonal antibodies specific for OVA isotype IgG1 or IgG2a. The results are shown as the titer of the antibody in peripheral blood in ng/ml. The results for IgG1 are depicted in FIG. 11 and those for IgG2a are depicted in FIG. 12.

[2] = system: Ova-specific target cells; experiment: in vivo cytotoxic specific cell lysis assay (CD8+ T cell response) in immunized mice; parameters: species or system mouse
OVA specific IgG2a = experiment: OVA-specific IgG2a ELISA after intramuscular immunization; format: in vivo, mouse; conditions: FIG. 12; IM, 50 μg OVA with 100 ng adjuvant, 14 days post-injection
Procedure: as §1

IFNγ = experiment: in vivo IFNγ release in sera by ELISA 24 hours after inoculation; parameters: species or system C57BL/6 mice; conditions: Quantikine kit, FIG. 4
Procedure: To test the ability of the adjuvant test compounds to stimulate in vivo cytokine release, C57BL/6 mice were administered the compounds at different concentrations intravenously and the production of IFNγ in sera was measured 24 hours later by ELISA. Groups of 3 mice were inoculated intravenously (tail vein) on day 0 as follows: • Group 1: 100 μl of PBS alone • Group 2: 1 μg of αGalCer in 100 μl of PBS • Group 3: 100 ng of αGalCer in 100 μl of PBS • Group 4: 1 ng of αGalCer in 100 μl of PBS • Group 5: 0.1 ng of αGalCer in 100 μl of PBS • Group 6: 100 ng of αGalCer and 100 μg of Ova in 100 μl of PBS • Group 7: 1 μg of PBS-57 in 100 μl of PBS • Group 8: 100 ng of PBS-57 in 100 μl of PBS • Group 9: 1 ng of PBS-57 in 100 μl of PBS • Group 10: 0.1 ng of PBS-57 in 100 μl of PBS • Group 11: 100 ng of PBS-57 and 400 μg of Ova into 100 μl of PBS • Group 12: 1 μg of PBS-14 in 100 μl of PBS • Group 13: 100 ng of PBS-14 in 100 μl of PBS • Group 14: 1 ng of PBS-14 in 100 μl of PBS • Group 15: 0.1 ng of PBS-14 in 100 μl of PBS • Group 16: 100 ng of PBS-14 and 400 μg of Ova in 100 μl of PBS • Group 17: 1 μg of PBS-96 in 100 μl of PBS • Group 18: 100 ng of PBS-96 in 100 μl of PBS • Group 19: 1 ng of PBS-96 in 100 μl of PBS • Group 20: 0.1 ng of PBS-96 in 100 μl of PBS • Group 21: 100 ng of PBS-96 and 400 μg of Ova in 100 μl of PBS. 24 hours after inoculation, blood samples were collected from the mice and IFNγ levels were detected by ELISA kit. Two ELISA kits were used, Quantikine mouse IFNγ (RD systems) was used to test all samples and ELISA mIFNγ (Diaclone) was used to test group 1, 2, 3, 6, 7, 8, 11, 12, 13, 16, 17, 18 and 21. All sera were diluted before use in ELISA as follows:
Results are expressed as IFNγ concentration (pg/ml) in sera and take into account the dilution factor. FIG. 4 depicts results using the Quantikine mouse IFNγ kit by RD systems. FIG. 4A depicts results of IFNγ levels for mice immunized with PBS-57, FIG. 4B depicts results of IFNγ levels for mice immunized with PBS-14, FIG. 4C depicts results of IFNγ levels for mice immunized with PBS-96 and FIG. 4D depicts results of IFNγ levels for mice immunized with αGalCer. At 0.1 ng, all adjuvant candidates induce cytokine release, but mice immunized with αGalCer produced three- or four-fold less IFNγ than mice immunized with PBS-57, PBS-14 or PBS-96 (1540.57±397.53 pg/ml, 4398.05±880.86 pg/ml, 6669.31±1231.82 pg/ml, 5823.33±720.69 pg/ml respectively).
Another set of mice were used to compare the ability of adjuvant compounds to stimulate in vivo cytokine release by the method described above. Five groups of C57BL/6 mice were administered 100 ng of PBS-57, PBS-14, PBS-96, or PBS-11 in 100 μl PBS or 100 μl PBS alone intravenously. The production of IFNγ in sera was measured 24 hours later by ELISA. FIG. 5 depicts results for mice immunized with 100 ng of PBS-11, PBS-96, PBS-14 and PBS-57.

## CCCCCCCCCCCCCCCCCCCCCCCCCC(=O)N[C@@H](CO[C@H]1O[C@H](CNC(C)=O)[C@H](O)[C@H](O)[C@H]1O)[C@H](O)[C@H](O)CCCCCCCCCCCCCC [PBS-14]
[1]; Example 6 Experiment A, FIG. 9, 50 μg Ova with 1 μg adjuvant
  percentage of OVA specific CD8+ T cells: enhanced the percentage of OVA specific CD8+ T cells
[1]; Example 6 Experiment B, FIG. 10, 50 μg Ova with 100 ng adjuvant
  percentage of OVA specific CD8+ T cells: surprisingly much better at enhancing the CD8+ T cell response
OVA-specific IgG1
  OVA-specific IgG1 titer in peripheral blood: able to elicit a robust IgG1 titer
[2]; Example 1, FIG. 1, IV, 1 μg adjuvant with 50 μg Ova, day 11
  specific lysis of Ova-specific target cells in blood: resulted in cytotoxic lysis of Ova-specific target cells
[2]; Example 2, FIG. 2, IV, 400 μg Ova with or without 1 μg adjuvant, day 11 blood
  average Ova-specific cytotoxic response: 83.3±6.1%
[2]; Example 2, FIG. 3, IM, 400 μg Ova with or without 1 μg adjuvant, day 11 blood
  average OVA-specific cytotoxic response: 52.07±29.56%
[2]; Example 4, FIG. 6, IV, 400 μg Ova with or without 1 μg adjuvant (PBS-57 new formulation), day 11 blood
  average Ova-specific cell lysis: 83.3±6.1%
[2]; Example 5 Experiments A and B, FIGS. 7 and 8, 50 μg OVA with 100 ng or 10 ng adjuvant intramuscularly
  enhancement of the CD8+ T cell response (specific lysis) at low doses: unexpectedly better than other adjuvants
OVA specific IgG2a
  OVA specific IgG2a titer in peripheral blood: about as well as Freund's adjuvant
IFNγ; 0.1 ng IV
  IFNγ concentration in sera: 6669.31 ± 1231.82 pg/mL
IFNγ; 1 ng IV
  IFNγ concentration in sera: 7481.15 ± 3454.03 pg/mL
IFNγ; 100 ng IV
  IFNγ concentration in sera: 19582.18 ± 3421.20 pg/mL
IFNγ; 1 μg IV
  IFNγ concentration in sera: 16392.53 ± 5957.70 pg/mL
